Here are results for 56 compounds from patent US20260102359A1, “COMBINATION TREATMENT OF DERMAL AND TRANSDERMAL FIBROTIC DISEASES, DISORDERS AND ASSOCIATED PAIN AND INFLAMMATION” (ERESINA, LLC, priority 2022, published 2026).

Each structure is given as a SMILES string. Where a name gives a salt, the structure may show the parent alone. *1 amine or outer side, *2 acyl side, *3 side chain or, on linkers, in order; H or OH if unused. Where a SMILES comes first, the peptide text is derived from it. Bridges are numbered along the chain shown (N, C = ends). Roman numbers before positions name the chains, in order. [ ]: non-standard residue; d: D form. Actinocin(9to1) = Cc1c2oc3c(C)ccc(C(=O)[*:1])c3nc-2c(C(=O)[*:2])c(N)c1=O; NMeV = CN[C@H](C(=O)O)C(C)C; Sar = CNCC(=O)O

For the data set, the system named is hDMFa myofibroblast cells.
In the case of `COS(=O)(=O)[O-].C[n+]1c2ccccc2nc2ccccc21` [Cmpd 775, Phenazine methosulfate], the “Compound Myofibroblast Cytotoxicity Activity” value is recorded as “+++++”.
With `Cl.c1ccc2c(-c3cnn4cc(-c5ccc(N6CCNCC6)cc5)cnc34)ccnc2c1` [Cmpd 574, LDN193189 Hydrochloride], the “Compound Myofibroblast Cytotoxicity Activity” value is recorded as “+++++”.
As for `Cc1c2oc3c(C)ccc(C(=O)N[C@@H]4C(=O)N[C@H](C(C)C)C(=O)N5CCC[C@H]5C(=O)N(C)CC(=O)N(C)[C@@H](C(C)C)C(=O)O[C@@H]4C)c3nc-2c(C(=O)N[C@@H]2C(=O)N[C@H](C(C)C)C(=O)N3CCC[C@H]3C(=O)N(C)CC(=O)N(C)[C@@H](C(C)C)C(=O)O[C@@H]2C)c(N)c1=O` [Cmpd 86, Actinomycin D] (I: T[dV]P[Sar][NMeV] / II: T[dV]P[Sar][NMeV]; ester I:1-I:C, II:1-II:C; linker I:N-II:N via Actinocin(9to1)), the “Compound Myofibroblast Cytotoxicity Activity” value is “++”.
In the case of `Nc1n[n+]([O-])c2ccccc2[n+]1[O-]` [Cmpd 948, Tirapazamine] it was “++++”; in that of `CC1CC(OC(=O)C(O)c2ccccc2)CC(C)(C)C1` (centres unmarked) [Cmpd 301, Cyclandelate], “+++”; in that of `COC(=O)C1=C(C)NC(C)=C(C(=O)OC2CCCN(Cc3ccccc3)C2)C1c1cccc([N+](=O)[O-])c1` (centres unmarked) [Cmpd 161, Benidipine HCl], “++”.
For `N#C[C@@H]1C[C@@H]2C[C@@H]2N1C(=O)[C@@H](N)C12CC3CC(CC(O)(C3)C1)C2` [Cmpd 854, Saxagliptin hydrate], the “Compound Myofibroblast Cytotoxicity Activity” value is “++”.
For `CC(=O)Nc1ccc(C(=O)O)cc1.CC(=O)Nc1ccc(C(=O)O)cc1.CC(=O)Nc1ccc(C(=O)O)cc1.CC(O)CN(C)C.CC(O)CN(C)C.CC(O)CN(C)C.O=c1[nH]cnc2c1ncn2[C@@H]1O[C@H](CO)[C@@H](O)[C@H]1O` [Cmpd 538, Isoprinosine], the “Compound Myofibroblast Cytotoxicity Activity” value is reported as “++”.
As to `CC[C@H](C)[C@H](N)C(=O)O` [Cmpd 594, L-Isoleucine], the “Compound Myofibroblast Cytotoxicity Activity” value is given as “+”.
With `CO[C@]12C[C@@H](COC(=O)c3cncc(Br)c3)CN(C)[C@@H]1Cc1cn(C)c3cccc2c13` [Cmpd 707, Nicergoline], the “Compound Myofibroblast Cytotoxicity Activity” value is reported as “++”.
Consider `CN1CCC(COc2cnc(-c3cccc(Cn4nc(-c5cccc(C#N)c5)ccc4=O)c3)nc2)CC1` [Cmpd 413, EMD-1214063], for which the “Compound Myofibroblast Cytotoxicity Activity” value was “++++”.
Take `O=c1[nH]c2ccccc2n1CCCN1CCC(n2c(=O)[nH]c3cc(Cl)ccc32)CC1` [Cmpd 378, Domperidone]: the “Compound Myofibroblast Cytotoxicity Activity” value is “++”.
Turning to `O=C(O)c1cn(C2CC2)c2cc(N3CCNCC3)c(F)cc2c1=O` [Cmpd 268, Ciprofloxacin (hydrochloride)], the “Compound Myofibroblast Cytotoxicity Activity” value was “++”.
Under `COC(=O)C1=C(C#N)NC(C)=C(C(=O)OC(C)C)C1c1cccc([N+](=O)[O-])c1` (centres unmarked) [Cmpd 715, Nilvadipine] stands “+++”; under `NCC(=O)O` [Cmpd 487, Glycine (GLY)], “++++”.
In the case of `O=C(O)CC(O)(CC(=O)O)C(=O)O` [Cmpd 273, Citric acid], the “Compound Myofibroblast Cytotoxicity Activity” value is on record as “++++”.
In the case of `Cc1ccccc1C(=O)O` [Cmpd 742, o-Toluic acid] it was “++”; in that of `O=C(CO)[C@@H](O)[C@H](O)[C@H](O)CO` [Cmpd 305, D-(−)-Fructose], “++”.
As for `Clc1ccc(C(Cn2ccnc2)OCc2c(Cl)cccc2Cl)c(Cl)c1` (centres unmarked) [Cmpd 535, Isoconazole nitrate], the “Compound Myofibroblast Cytotoxicity Activity” value was “+++”.
Under `COc1cccc(OC)c1C(=O)N[C@@H]1C(=O)N2[C@@H]1SC(C)(C)[C@@H]2C(=O)O` [Cmpd 656, Methicillin (sodium salt)] stands “++”.
For the compound `C[C@@H](O)[C@H](N)C(=O)O` [Cmpd 614, L-Threonine], the “Compound Myofibroblast Cytotoxicity Activity” value is given as “+++++”.
Turning to `CC(=O)Nc1ccccc1` [Cmpd 79, Acetanilide], the “Compound Myofibroblast Cytotoxicity Activity” value is “++++”.
For `CCOC(=O)c1ccc(N)cc1` [Cmpd 166, Benzocaine], the “Compound Myofibroblast Cytotoxicity Activity” value is “++”.
In the case of `CCn1cc(C(=O)O)c(=O)c2cc(F)c(N3CCNCC3)nc21` [Cmpd 416, Enoxacin Sesquihydrate], the “Compound Myofibroblast Cytotoxicity Activity” value is given as “++”.
`CN(C)CCCN1c2ccccc2CCc2ccc(Cl)cc21` [Cmpd 285, Clomipramine HCl]: the “Compound Myofibroblast Cytotoxicity Activity” value is on record as “++”.
With `Cn1nnc(-c2ccc(-c3ccc(N4C[C@H](CO)OC4=O)cc3F)cn2)n1` [Cmpd 920, Tedizolid HCl], the “Compound Myofibroblast Cytotoxicity Activity” value is listed as “++++”.
In the case of `Nc1ccn([C@H]2CC[C@@H](CO)O2)c(=O)n1` [Cmpd 1024, Zalcitabine], the “Compound Myofibroblast Cytotoxicity Activity” value was “++++”.
In the case of `Nc1cc[nH]c(=O)n1` [Cmpd 304, Cytosine] it was “++”; in that of `CO[C@H]1C[C@@H]2CC[C@@H](C)[C@@](O)(O2)C(=O)C(=O)N2CCCC[C@H]2C(=O)O[C@H]([C@H](C)C[C@@H]2CC[C@@H](OC(=O)C(C)(CO)CO)[C@H](OC)C2)CC(=O)[C@H](C)/C=C(\C)[C@@H](O)[C@@H](OC)C(=O)[C@H](C)C[C@H](C)/C=C/C=C/C=C/1C` [Cmpd 924, Temsirolimus (CCl-779, NSC 683864)], “+++++”.
Regarding `COC(=O)C1=C(C)NC(C)=C(C(=O)OCCN(C)Cc2ccccc2)C1c1cccc([N+](=O)[O-])c1` (centres unmarked) [Cmpd 706, Nicardipine HCl], the “Compound Myofibroblast Cytotoxicity Activity” value is listed as “+++”.
For the compound `CCCN(CCC)C(=O)C1=Cc2ccc(-c3ccc(C(=O)N4CCCC4)cc3)cc2N=C(N)C1` [Cmpd 690, Motolimod (VTX-2337)], the “Compound Myofibroblast Cytotoxicity Activity” value was “++”.
Consider `Oc1cccc2cccnc12` [Cmpd 74, 8-Hydroxyquinoline], for which the “Compound Myofibroblast Cytotoxicity Activity” value was “++”.
Take `O=C(O)Cc1ccc(-c2ccccc2)cc1` [Cmpd 60, 4-Biphenylacetic acid]: the “Compound Myofibroblast Cytotoxicity Activity” value is reported as “++”.
Under `C=C(C)[C@@H]1CC[C@@]2(C)[C@H]1[C@H]1CCC3[C@@]4(C)CC[C@H](O)C(C)(C)[C@@H]4CC[C@@]3(C)[C@]1(C)C[C@@H]2O` (some centres unmarked) [Cmpd 207, Calenduladiol] stands “+”.
In the case of `CC1=CC[C@H]2C[C@@H]1C2(C)C` [Cmpd 21, (1S)-(-)-α-Pinene] it was “++”; in that of `CC12CCC(CC1=O)C2(C)C` (stereo not drawn) [Cmpd 11, (+)-Camphor], “++”; in that of `COC(=O)c1ccc(O)cc1` [Cmpd 664, Methylparaben], “++”.
`C[C@]12CC[C@H]3[C@@H](CC[C@@]45O[C@@H]4C(O)=C(C#N)C[C@]35C)[C@@H]1CC[C@@H]2O` [Cmpd 973, Trilostane]: the “Compound Myofibroblast Cytotoxicity Activity” value is reported as “++”.
For `O=C(O)CCC(=O)Nc1ccc(S(=O)(=O)Nc2nccs2)cc1` [Cmpd 891, Succinylsulfathiazole], the “Compound Myofibroblast Cytotoxicity Activity” value was “++”.
Turning to `Cl.N[C@@H]1C[C@H]1c1ccccc1` [Cmpd 964, Tranylcypromine hydrochloride], the “Compound Myofibroblast Cytotoxicity Activity” value is “++++”.
In the case of `CC(=O)OCC[N+](C)(C)C.[I-]` [Cmpd 83, Acetylcholine iodide] it was “++”; in that of `O=C(O)c1ccccc1` [Cmpd 167, Benzoic Acid], “++”; in that of `N=C(N)NCCC[C@H](N)C(=O)O` [Cmpd 561, L-Arginine], “++”.
In the case of `CCOc1cc(CC(=O)N[C@@H](CC(C)C)c2ccccc2N2CCCCC2)ccc1C(=O)O` [Cmpd 826, Repaglinide] it was “+++”; in that of `Cc1c(-c2ccc(O)cc2)n(Cc2ccc(OCCN3CCCCCC3)cc2)c2ccc(O)cc12` [Cmpd 159, Bazedoxifene acetate], “++++”; in that of `CC(CN1c2ccccc2Sc2ccccc21)N(C)C` (centres unmarked) [Cmpd 801, Promethazine HCl], “++”.
On to `CC(=O)O[C@]1(C(C)=O)CC[C@H]2[C@@H]3C[C@H](C)C4=CC(=O)CC[C@]4(C)[C@H]3CC[C@@]21C` [Cmpd 643, Medroxyprogesterone acetate], for which the “Compound Myofibroblast Cytotoxicity Activity” value is recorded as “++”.
Under `CC(C)(C)c1nc(-c2cccc(NS(=O)(=O)c3c(F)cccc3F)c2F)c(-c2ccnc(N)n2)s1.CS(=O)(=O)O` [Cmpd 311, Dabrafenib Mesylate (GSK-2118436)] stands “++”; under `CC(C)/N=c1\cc2n(-c3ccc(Cl)cc3)c3ccccc3nc-2cc1Nc1ccc(Cl)cc1` [Cmpd 283, Clofazimine], “++”; under `COc1cc2c(cc1OC)C1CC(=O)C(CC(C)C)CN1CC2` (centres unmarked) [Cmpd 933, Tetrabenazine], “+++”.
As to `O=C(O)Cc1cc(I)c(Oc2ccc(O)c(I)c2)c(I)c1` [Cmpd 949, Tiratricol], the “Compound Myofibroblast Cytotoxicity Activity” value is recorded as “+++”.
`COc1ccc2c(c1)C(=O)N(CCc1ccc(S(=O)(=O)NC(=O)NC3CCCCC3)cc1)C(=O)C2(C)C` [Cmpd 485, Gliquidone]: the “Compound Myofibroblast Cytotoxicity Activity” value was “++”.
With `C=C1CC[C@H]2C[C@@H]1C2(C)C` [Cmpd 22, (1S)-(-)-β-Pinene], the “Compound Myofibroblast Cytotoxicity Activity” value is “++”.
`CC(CCc1ccccc1)NCC(O)c1ccc(O)c(C(N)=O)c1` (centres unmarked) [Cmpd 553, Labetalol HCl]: the “Compound Myofibroblast Cytotoxicity Activity” value is “++”.
As for `CO[C@@H]1[C@H](N(C)C(=O)c2ccccc2)C[C@H]2O[C@]1(C)n1c3ccccc3c3c4c(c5c6ccccc6n2c5c31)C(=O)NC4` [Cmpd 674, Midostaurin (PKC412)], the “Compound Myofibroblast Cytotoxicity Activity” value is listed as “++”.
For the compound `CC1(C)CCC(c2ccc(Cl)cc2)=C(CN2CCN(c3ccc(C(=O)NS(=O)(=O)c4ccc(N[C@H](CCN5CCOCC5)CSc5ccccc5)c(S(=O)(=O)C(F)(F)F)c4)cc3)CC2)C1` [Cmpd 77, ABT-263 (Navitoclax)], the “Compound Myofibroblast Cytotoxicity Activity” value is “+++++”.
